Patent publication US6827926B2, “Metallotetrapyrrolic photosensitizing agents for use in photodynamic therapy” (Miravant Pharmaceuticals, Inc., priority 2001, dated 2004)
Like-named read-outs stand apart in the source and are kept apart here.

How the values were obtained:
[1] = system: V79 (Chinese Hamster Lung Fibroblasts) cells; test: In vitro cytotoxicity assay (light EC50, Alamar blue); format: cell-based
Outline: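 V79 cells in phenol-free 5% FBS/DMEM exposed 24 h to photosensitizer at final 0.01–5.0 μM, six replicates, then washed and light-treated, with a dark plate as control. Survival by Alamar blue after 24 h dark incubation, read at 570/600 nm.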

[2] = system: normal skin of CD Hairless male rats; format: in vivo, rat
Outline: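 Liposomal egg yolk phospholipid photosensitizer given as single i.v. tail-vein bolus at 1, 1.5 and 2 μmol/kg; skin spots irradiated with 532 nm laser (150 mW/cm^2, 150J, 1 cm) at 1, 6, 24, 48, 96 hrs post injection. Value is time of last observed skin response spot.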

[3] = system: normal uninjured rat carotid arteries (medial and adventitial cell populations); test: In vivo rat carotid artery acellularity after PDT; parameters: species or system Sprague Dawley rats; details: for Max % rat Artery Accelularity: Table 3; for Max % Rat Artery Accelularity: Table 4, 575 nm (Pt 532 nm); for accelularity in rat artery at a four hour treatment point: 4 hrs post administration
Outline: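 Metallated photosensitizers light-activated in normal uninjured rat left common carotid via balloon catheter introduced through femoral arteriotomy under isoflurane; excitation 575 nm (Ga, Zn, Al, Sn) or 532 nm (Pt). Arteries harvested 3 days post-treatment, H&E-stained; medial and adventitial cell density assessed by light microscopy.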

[4] = Table 3 porphyrins, 24 h drug incubation, 532 nm, 1.25 J/cm^2, read-out: In Vitro EC50 Light
[5] = drug dose 1 μMol, 50 J/cm^2, 3 days post treatment
[6] = Table 4 azaporphyrins, 575 nm (Pt azaporphyrins 532 nm), 1.25 J/cm^2, read-out: In Vitro EC(50)

Row | Structure (SMILES) | EC50 [1, 4] [nM] | Normal skin Response (1 μmol) ([2]; rat, in vivo) [h] | Max % rat Artery Accelularity [3, 5] [%] | EC50 [1, 6] [nM] | Max % Rat Artery Accelularity ([3]; drug dose 1 μMol) [%] | also measured
1 | CCOC(=O)CCCCC1=C(C)C2=Cc3c(CC)c(C)c4[n]3[Al-2]35([Cl])[n]6c(c(C)c(CCCCC(=O)OCC)c6=CC1=[N+]23)=CC1=[N+]5C(=C4)C(CC)=C1C [Example 54, Aluminum Chloride 8,13-diethyl-3,7,12,17-tetramethylporphyrin-2,18-di(pentanoic acid ethyl ester)] | 4000 | 24 | 0 | – | – | –
2 | CCOC(=O)CCCCC1=C(C)C2=Cc3c(CC)c(C)c4[n]3[Zn-2]35[n]6c(c(C)c(CCCCC(=O)OCC)c6=CC1=[N+]23)=CC1=[N+]5C(=C4)C(CC)=C1C (stereo not shown) [Example 55, Zinc 8,13-diethyl-3,7,12,17-tetramethylporphyrin-2,18-di(pentanoic acid ethyl ester)] | 4000 | 24 | 0 | – | – | –
3 | CCCOC(=O)CCCCC1=C(C)C2=Cc3c(CC)c(C)c4[n]3[Ga-2]35([Cl])[n]6c(c(C)c(CCCCC(=O)OCCC)c6=CC1=[N+]23)=CC1=[N+]5C(=C4)C(CC)=C1C [Example 56, Gallium Chloride 8,13-diethyl-3,7,12,17-tetramethylporphyrin-2,18-di(pentanoic acid propyl ester)] | 400 | 24 | 75 | – | – | –
4 | CCC1=C(C)c2cc3[n-]c(cc4nc(cc5[n-]c(cc1n2)c(C)c5CC)C(C)=C4CCCCC(=O)OC)c(CCCCC(=O)OC)c3C.[Cl-].[Ga+3] [Example 57, Gallium Chloride 8,13-diethyl-3,7,12,17-tetramethylporphyrin-2,18-di(pentanoic acid methyl ester)] | 460 | 6 | 80 | – | – | factor of decrease of normal skin response / skin clearance time versus the parent methyl ester ([2]; rat, in vivo): 8; acellularity (rat artery) ([3]; text b234, 1 μmol/Kg (printed 1 mol/Kg for 57)): 80%
5 | CCC1=C(C)C2=[N+]3C1=Cc1c(C)c(CC)c4[n]1[Sn-2]31([Cl])([Cl])[n]3c(c(C)c(CCC(=O)NC)c3=CC3=[N+]1C(=C4)C(C)=C3CCC(=O)NC)=C2 [Example 58, Tin(IV)dichloride Mesoporphyrin N-methylamide] | 1200 | 24 | 10 | – | – | –
6 | CCC1=C(C)C2=[N+]3C1=Cc1c(C)c(CC)c4[n]1[In-2]31([Cl])[n]3c(c(C)c(CCC(=O)NC)c3=CC3=[N+]1C(=C4)C(C)=C3CCC(=O)NC)=C2 [Example 59, Indium Chloride Mesoporphyrin N-methylamide] | 170 | 48 | 60 | – | – | –
7 | CCC1=C(C)C2=[N+]3C1=Cc1c(C)c(CC)c4[n]1[Pt-2]31[n]3c(c(C)c(CCC(=O)NC)c3=CC3=[N+]1C(=C4)C(C)=C3CCC(=O)NC)=C2 (stereo not shown) [Example 60, Platinum Mesoporphyrin N-methylamide] | 120 | 96 | 25 | – | – | –
8 | CCC1=C(C)C2=[N+]3C1=Cc1c(C)c(CC)c4[n]1[Zn-2]31[n]3c(c(C)c(CCC(=O)N(CC)CC)c3=CC3=[N+]1C(=C4)C(C)=C3CCC(=O)N(CC)CC)=C2 (stereo not shown) [Example 62, Zinc Mesoporphyrin N,N-diethylamide] | 4000 | 24 | 0 | – | – | –
9 | CCC1=C(C)c2cc3[n-]c(cc4nc(cc5[n-]c(cc1n2)c(C)c5CC)C(C)=C4CCCO)c(CCCO)c3C.[Cl-].[In+3] [Example 72, Indium Chloride 8,13-diethyl-3,7,12,17-tetramethylporphyrin-2,18-di(3′-hydroxypropyl)] | 40 | 96 | – | – | – | Max % rat Artery Accelularity ([3]; drug dose 0.5 μMol): 40%
10 | CCC1=C(C)c2cc3[n-]c(cc4nc(cc5[n-]c(cc1n2)c(C)c5CC)C(C)=C4CCCO)c(CCCO)c3C.[Pt+2] [Example 74, Platinum 8,13-diethyl-3,7,12,17-tetramethylporphryin-2,18-di(3′-hydroxypropyl)] | 100 | 24 | 25 | – | – | –
11 | CCC1=C(C)c2cc3[n-]c(cc4nc(cc5[n-]c(cc1n2)c(C)c5CC)C(C)=C4CCCOC)c(CCCOC)c3C.[Cl-].[In+3] [Example 75, Indium Chloride 8,13-diethyl-3,7,12,17-tetramethylporphyrin-2,18-di(3′-methoxypropyl)] | 60 | 96 | 75 | – | – | –
12 | CCC1=C(C)c2cc3[n-]c(cc4nc(cc5[n-]c(cc1n2)c(C)c5CC)C(C)=C4CCCN1CCCC1)c(CCCN1CCCC1)c3C.[Pt+2] [Example 77, Platinum 8,13-diethyl-3,7,12,17-tetramethylporphyrin-2,18-di(3-(N-pyrrolidino)propyl)] | 100 | – | 25 | – | – | Normal skin Response (1 μmol) ([2]; Table 3, time of last skin spot observed post injection, 1 μmol, 532 nm laser): 96 h
13 | CCC1=C(C)C2=[N+]3C1=Cc1c(C)c(CC)c4[n]1[Ga-2]31([OH])[n]3c(c(C)c(CCCNCCCO)c3=CC3=[N+]1C(=C4)C(C)=C3CCCNCCCO)=C2 [Example 78, Gallium Hydroxy 8,13-diethyl-3,7,12,17 tetramethylporphyrin-2,18-di((N-3′-hydoxypropyl)-3-aminopronpyl)] | 1000 | 6 | – | – | – | Max % rat Artery Accelularity ([3]; drug dose 2 μMol): 10%
14 | CCC1=C(CC)C2=[N+]3C1=Nc1c(CC)c(CC)c4[n]1[Sn-2]31([Cl])([Cl])[n]3c(c(C)c(CCC(=O)OC)c3=CC3=[N+]1C(=C4)C(C)=C3CCC(=O)OC)=C2 [Example 82, Tin(IV)dichloride 7,8,12,13-tetraethyl-12,17-dimethyl-10-azaporphyrin-2,18-di(propionic acid methyl ester)] | – | 96 | – | 400 | 30 | –
15 | CCC1=C(CC)C2=[N+]3C1=Nc1c(CC)c(CC)c4[n]1[In-2]31([Cl])[n]3c(c(C)c(CCC(=O)OC)c3=CC3=[N+]1C(=C4)C(C)=C3CCC(=O)OC)=C2 [Example 83, Indium Chloride 7,8,12,13-tetraethyl-12,17-dimethyl-10-azaporphyrin-2,18-di(propionic acid methyl ester)] | – | 48 | – | 30 | 50 | –
16 | CCC1=C(CC)C2=[N+]3C1=Nc1c(CC)c(CC)c4[n]1[Ga-2]31([Cl])[n]3c(c(C)c(CCC(=O)O)c3=CC3=[N+]1C(=C4)C(C)=C3CCC(=O)O)=C2 [Example 87, Gallium Chloride 7,8,12,13-tetraethyl-12,17-dimethyl-10-azaporphyrin-2,18-di(propionic acid)] | – | 24 | – | 310 | 30 | accelularity in rat artery at a four hour treatment point [3]: 30%
17 | CCOC(=O)CCC1=C(C)C2=Cc3c(CC)c(CC)c4[n]3[Ga-2]35([Cl])[n]6c(c(C)c(CCC(=O)OCC)c6=CC1=[N+]23)=CC1=[N+]5C(=N4)C(CC)=C1CC [Example 89, Gallium Chloride 7,8,12,13-tetraethyl-12,17-dimethyl-10-azaporphyrin-2,18-di(propionic acid ethyl ester)] | – | 24 | – | 400 | 60 | –
18 | CCC1=C(CC)C2=Nc3c(CC)c(CC)c4[n]3[Sn]([Cl])([Cl])[n]3c(c(C)c(CCC(=O)NC)c3=CC3=NC(=C4)C(C)=C3CCC(=O)NC)=CC1=N2 [Example 90, Tin (IV) Dichloride 7,8,12,13-tetraethyl-12,17-dimethyl-10-azaporphyrin-2,18-di(propionic acid methyl amide)] | – | 96 | – | 500 | 30 | –
19 | CCC1=C(CC)C2=Nc3c(CC)c(CC)c4[n]3[In]([Cl])[n]3c(c(C)c(CCC(=O)NC)c3=CC3=NC(=C4)C(C)=C3CCC(=O)NC)=CC1=N2 [Example 91, Indium Chloride 7,8,12,13-tetraethyl-12,17-dimethyl-10-azaporphyrin-2,18-di(propionic acid methyl amide)] | – | 48 | – | 70 | 50 | –
20 | CCC1=C(CC)C2=Nc3c(CC)c(CC)c4[n]3[Ga]([Cl])[n]3c(c(C)c(CCCC(=O)OC)c3=CC3=NC(=C4)C(C)=C3CCCC(=O)OC)=CC1=N2 [Example 108, Gallium Chloride 7,8,12,13-tetraethyl-12,17-dimethyl-10-azaporphyrin-2,18-di(butanoic acid methyl ester)] | – | – | – | 400 | 55 | Normal skin Response (1 μmol) ([2]; Table 4, time of last skin spot observed post injection, 1 μmol): 24 h
21 | CCC1=C(C)c2cc3[n-]c(cc4nc(cc5[n-]c(cc1n2)c(C)c5CC)C(C)=C4CCC(=O)[O-])c(CCC(=O)[O-])c3C.[Ga+3].[Na+].[Na+].[OH-] [Example 109, Gallium Hydroxy Mesoporphyrin Disodium Salt] | 2400 | – | – | – | – | Normal skin Response (1 μmol) in hrs ([2]; rat, in vivo): none; normal skin response at the drug doses used ([2]; rat, in vivo): no observed normal skin response; acellularity following PDT of rat arteries at longer treatment times post injection ([3]; 16, 24 hrs post injection): significant acellularity; accelularity in rat artery at a four hour treatment point [3]: 10%; Max % rat Artery Accelularity ([3]; drug dose 1 μMol, 4 hrs): 10/4 hrs. %; Max % rat Artery Accelularity ([3]; drug dose 1 μMol, 24 hrs): 100/24 hrs %
